Measured values published in ChEMBL document CHEMBL1137410, “Using fragment cocktail crystallography to assist inhibitor design of Trypanosoma brucei nucleoside 2-deoxyribosyltransferase” (2006).

What follows are molecules tested on Trypanosoma brucei brucei (assay: Inhibition of Trypanosoma brucei brucei growth). Conditions: read-out: ED50 (the source's name).
Type: functional
In the case of `Cn1c(=O)ccc2ccccc21`, the EC50 is reported as 413 µM. With `Nc1cccc2cnccc12` the EC50 was 252 µM. `CCc1ccccc1CO` gave an EC50 of 1340 µM.
